Measurements from ChEMBL document CHEMBL3885861, “Open TG-GATES”.

Species on record: Rattus norvegicus
Experiment: Open TG-GATES - Regimen: Single
Assay type: toxicity, organism-based, Sprague-Dawley
Parameters: regimen Single, gender Male, age 6 weeks
Conditions: in vivo, po, 0 mg/kg, route gavage, dose level Control; for APTT / Bas / Eos / Fbg / Hb / Ht / Lym / MCH / MCHC / MCV / Mono / Neu / PT / Plat / RBC / Ret / WBC: tissue Blood; for KIDNEY_L / KIDNEY_R / KIDNEY_TOTAL: tissue Kidney; for LIVER: tissue Liver; for A/G / ALP / ALT / AST / BUN / CRE / Ca / Cl / DBIL / GLC / IP / K / LDH / Na / PL / RALB / TBIL / TC / TG / TP / gamma-GTP: tissue Plasma

## ClC(Cl)(Cl)Cl [CARBON TETRACHLORIDE]
3 h
  TERMINAL_BW: 204.7 g
  APTT: 16.7 s
  Bas: 0%
  Eos: 1%
  Fbg: 245 mg/dL
  Hb: 13 g/dL
  Ht: 37.3%
  Lym: 73.8%
  MCH: 21.7 pg
  MCHC: 34.8%
  MCV: 62.3 fL
  Mono: 3.6%
  Neu: 21.6%
  PT: 12 s
  Plat: 132.6 x10_4/uL
  RBC: 599 x10_4/ul
  Ret: 8.6%
  WBC: 103.4 x10_2/uL
  KIDNEY_L: 0.9 g
  KIDNEY_R: 0.9 g
  KIDNEY_TOTAL: 1.8 g
  LIVER: 10 g
  A/G: 1.6
  ALP: 947 IU/L
  ALT: 37.2 IU/L
  AST: 66.6 IU/L
  BUN: 13.2 mg/dL
  CRE: 0.4 mg/dL
  Ca: 11 mg/dL
  Cl: 104.2 meq/L
  DBIL: 0.3 mg/dL
  GLC: 207 mg/dL
  IP: 9 mg/dL
  K: 3.9 meq/L
  LDH: 209 IU/L
  Na: 139.6 meq/L
  PL: 179.8 mg/dL
  RALB: 3.4 g/dL
  TBIL: 0.3 mg/dL
  TC: 87.2 mg/dL
  TG: 159.6 mg/dL
  TP: 5.6 g/dL
  gamma-GTP: 0.6 IU/L
6 h
  TERMINAL_BW: 204.3 g
  APTT: 17 s
  Bas: 0%
  Eos: 0.8%
  Fbg: 230.8 mg/dL
  Hb: 13 g/dL
  Ht: 37.6%
  Lym: 69%
  MCH: 22 pg
  MCHC: 34.6%
  MCV: 63.4 fL
  Mono: 3.4%
  Neu: 26.6%
  PT: 12.1 s
  Plat: 140.4 x10_4/uL
  RBC: 593.6 x10_4/ul
  Ret: 8.9%
  WBC: 98.9 x10_2/uL
  KIDNEY_L: 0.9 g
  KIDNEY_R: 0.9 g
  KIDNEY_TOTAL: 1.8 g
  LIVER: 9 g
  A/G: 1.5
  ALP: 1166.6 IU/L
  ALT: 31.4 IU/L
  AST: 62.8 IU/L
  BUN: 9.6 mg/dL
  CRE: 0.4 mg/dL
  Ca: 10.7 mg/dL
  Cl: 104 meq/L
  DBIL: 0.094 mg/dL
  GLC: 196.8 mg/dL
  IP: 9.8 mg/dL
  K: 4.1 meq/L
  LDH: 189.2 IU/L
  Na: 139.8 meq/L
  PL: 161.4 mg/dL
  RALB: 3.3 g/dL
  TBIL: 0.2 mg/dL
  TC: 89.4 mg/dL
  TG: 61 mg/dL
  TP: 5.4 g/dL
  gamma-GTP: 1 IU/L
9 h
  TERMINAL_BW: 201.8 g
  APTT: 16.1 s
  Bas: 0%
  Eos: 0.8%
  Fbg: 222.4 mg/dL
  Hb: 12.6 g/dL
  Ht: 36.6%
  Lym: 76.6%
  MCH: 22.2 pg
  MCHC: 34.6%
  MCV: 64.2 fL
  Mono: 2.2%
  Neu: 20%
  PT: 12.2 s
  Plat: 131.9 x10_4/uL
  RBC: 570 x10_4/ul
  Ret: 9.7%
  WBC: 82.1 x10_2/uL
  KIDNEY_L: 0.9 g
  KIDNEY_R: 0.9 g
  KIDNEY_TOTAL: 1.8 g
  LIVER: 8.6 g
  A/G: 1.4
  ALP: 961.6 IU/L
  ALT: 30 IU/L
  AST: 62.6 IU/L
  BUN: 11.2 mg/dL
  CRE: 0.4 mg/dL
  Ca: 10.3 mg/dL
  Cl: 102.4 meq/L
  DBIL: 0.066 mg/dL
  GLC: 207.2 mg/dL
  IP: 10.7 mg/dL
  K: 3.7 meq/L
  LDH: 163 IU/L
  Na: 139.2 meq/L
  PL: 129.8 mg/dL
  RALB: 3.1 g/dL
  TBIL: 0.1 mg/dL
  TC: 69.8 mg/dL
  TG: 35.6 mg/dL
  TP: 5.4 g/dL
  gamma-GTP: 1.2 IU/L
24 h
  TERMINAL_BW: 215.9 g
  APTT: 18.1 s
  Bas: 0.2%
  Eos: 1%
  Fbg: 256.8 mg/dL
  Hb: 13.7 g/dL
  Ht: 38.8%
  Lym: 82%
  MCH: 22.5 pg
  MCHC: 35.3%
  MCV: 63.8 fL
  Mono: 2.4%
  Neu: 14.2%
  PT: 11.8 s
  Plat: 140.8 x10_4/uL
  RBC: 607.2 x10_4/ul
  Ret: 8%
  WBC: 105.9 x10_2/uL
  KIDNEY_L: 0.9 g
  KIDNEY_R: 0.9 g
  KIDNEY_TOTAL: 1.9 g
  LIVER: 10.6 g
  A/G: 1.6
  ALP: 1231.6 IU/L
  ALT: 37.2 IU/L
  AST: 66.6 IU/L
  BUN: 15 mg/dL
  CRE: 0.4 mg/dL
  Ca: 10.9 mg/dL
  Cl: 103 meq/L
  DBIL: 0.088 mg/dL
  GLC: 202.2 mg/dL
  IP: 7.4 mg/dL
  K: 3.8 meq/L
  LDH: 186.2 IU/L
  Na: 140 meq/L
  PL: 156.2 mg/dL
  RALB: 3.5 g/dL
  TBIL: 0.2 mg/dL
  TC: 79.2 mg/dL
  TG: 100 mg/dL
  TP: 5.7 g/dL
  gamma-GTP: 1.2 IU/L
